Source: ChEMBL document CHEMBL1133992, “Hydrolase and sialyltransferase activities of trypanosoma cruzi trans-sialidase towards NeuAc-alpha-2,3-gal-Gal-beta-O-PNP” (Bioorg Med Chem Lett, 2001)
Calls of active or inactive are those of the source. The rule behind the calls is not given here.

Key:
Vibrio cholerae = assay: Inhibitory activity against Vibrio cholerae sialidase at mM concentration, Not significant
Trypanosoma cruzi [1] = assay: Km value for transferase activity of Trypanosoma cruzi trans-sialidase
Trypanosoma cruzi [2] = assay: Km value for hydrolase activity of Trypanosoma cruzi trans-sialidase

For `CCCCCCCCOC1OC(CO)C(O)C(SC2(C(=O)O)CC(O)C(NC(C)=O)C([C@H](O)[C@H](O)CO)O2)C1O` (stereo partly drawn), the inhibition (Vibrio cholerae) was “inactive”, the Km (Trypanosoma cruzi [1]) was over 5 mM and the Km (Trypanosoma cruzi [2]) was over 5 mM.
